Measured values: patent US20180344725A1, “QUINOLONE CHALCONE COMPOUNDS AND USES THEREOF” (priority 2015, published 2018)

Assays:
HeLa cells = experiment: Western blotting (PARP cleavage, apoptosis); assay type: cell-based; details: by 24-hour post-treatment
Procedure: Exponentially growing cells were collected by centrifugation at 1,100 rpm (Allegra™ X-12 centrifuge, Beckman Coulter) at scheduled time points post-treatment. Cells were washed three times with PBS by centrifugation under the same conditions, followed by cell lysis for 10-15 minutes on ice in 100 μl Lysis buffer (150 mM NaCl, 5 mM EDTA, 1% triton X-100, 10 mM tris pH 7.4, 1 mM PMSF, 5 mM EDTA and 5 mM protease inhibitor). Cell extracts were centrifuged at 11,000 rpm (Allegra™ X-12 centrifuge, Beckman Coulter) for 10 minutes at 4° C. Supernatant was collected and the protein concentration was measured using a BCA assay kit according to the supplier's specifications (Thermo Fisher Scientific, Waltham, Mass.). Cell lysates were then diluted with 2× Iaemmli sample buffer and boiled for 5 minutes at 95-100° C. 30-40 μg protein was loaded on 8% or 10% polyacrylamide gel and resolved by electrophoresis. Proteins were then electronically transferred to a PVDF membrane for 75 minutes at 24 volts, followed by “blocking” with 5% skim milk for 1 hour. Proteins were incubated with primary antibody overnight at 4° C. in 0.1% TBST buffer containing 5% skim milk. The membrane was washed three times with 0.1% TBST buffer and incubated for 1 hour with secondary antibody in TBST buffer containing 5% skim milk. […]

[1] = SRB-based cytotoxicity assay; assay type: cell-based; details: human, MCF-10A cells (non-cancer breast cells); MCF10A; 31.25 nM; 72 hours; read-out: cell viability
In short: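 Seventy-two-hour SRB protein-staining assay with 4,000-5,000 cells/well and compounds delivered in DMSO. Fixation uses cold 10% TCA, and dye is released in Tris pH 10.5 before reading at 540 nm. Duplicate biological experiments, each in quadruplicate, feed the dose-response fits.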

Body weight analysis = assay type: in vivo; details: ATH490 athymic mice; D0-D30
Procedure: Animals were monitored for food and water consumption every day, and their body weights and tumor volumes were measured twice per week. Tumor volumes were measured with a digital caliper and were determined by using the following formula: ½ length×width^2. Blood samples were collected via cardiac puncture and processed further for ALT and AST measurements. The animals were then immediately euthanized by carbon dioxide. Tumors and vital organs (spleen, kidney, liver and lung) were collected and fixed in 10% buffered formalin at 4° C. overnight before being processed for paraffin embedding. The paraffin-embedded blocks were then cut into 4-5 μm thick sections. Each section of tumors and organs was stained with hematoxylin and eosin (H&E).
Changes in body weight, hemoglobin (Hb) and the amount and ratio of alanine transaminase (ALT)/aspartate transaminase (AST) were used to measure toxic effects. In addition, vital organs (liver, spleen, kidney and lung) were analyzed by […] after they were harvested, fixed, processed, paraffin-embedded, sectioned, and stained as described above.
. Six-week old ATH40 athymic nude mice were treated as indicated in the legend. “Tax” denotes that paclitaxel was injected by i.v. as described in Table 11. D0-D30 denotes day 0 to day 30 post-drug treatment. The numbers in brackets show drug concentrations in mg/kg body weight. […]

K562 = experiment: SRB-based cytotoxicity assay; assay type: cell-based; details: Homo sapiens, Table 2
In short: (§1)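 4,000-5,000 cells/well, 16 h pre-incubation; compound (DMSO) 72 h; 10% TCA fix 4 °C 1 h; 0.4% SRB 30 min, 1% acetic acid wash; 10 mM Tris pH 10.5; A540. IC50 by sigmoidal fit, n=2 biological × 4.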

UC3 (Bladder) = experiment: SRB-based cytotoxicity assay; assay type: cell-based; details: 72 hours
In short: as §1

NCI-H1975 (lung) = experiment: SRB-based cytotoxicity assay; assay type: cell-based; details: Homo sapiens, 72 hours
In short: as §1

HEK293T (kidney) = experiment: SRB-based cytotoxicity assay; assay type: cell-based; details: Homo sapiens, HEK-293T, 72 hours
In short: as §1

U87MG (brain) = experiment: SRB-based cytotoxicity assay; assay type: cell-based; details: Homo sapiens, U-87 MG, 72 hours
In short: as §1

T98G (brain) = experiment: SRB-based cytotoxicity assay; assay type: cell-based; details: Homo sapiens, 72 hours
In short: as §1

A549 (lung) = experiment: SRB-based cytotoxicity assay; assay type: cell-based; details: Homo sapiens, 72 hours
In short: as §1

SMILES	concentration at which many cells underwent apoptosis (cleavage of PARP) (HeLa cells) [nM]	viability at 72 h, 0.03125 µM [1] [%]	toxic side effect as determined by the changes in body weights (Body weight analysis)	IC50 (K562) [nM]	IC50 (UC3 (Bladder)) [nM]	IC50 (NCI-H1975 (lung)) [nM]	IC50 (HEK293T (kidney)) [nM]	IC50 (U87MG (brain)) [nM]	IC50 (T98G (brain)) [nM]	IC50 (A549 (lung)) [nM]
COc1ccccc1C(=O)/C=C/c1cc2cccc(OC)c2[nH]c1=O [CTR-21, (E)-8-methoxy-3-(3-(2-methoxyphenyl)-3-oxoprop-1-enyl) quinolin-2(1H)-one]	≥ 15	26	–	–	–	–	–	–	–	–
CCOc1ccccc1C(=O)/C=C/c1cc2ccccc2[nH]c1=O [CTR-32, (E)-3-(3-(2-ethoxyphenyl)-3-oxoprop-1-enyl)quinolin-2(1H)-one]	≥ 30	87	–	–	–	–	–	–	–	–
COc1ccccc1C(=O)/C=C/c1cc2ccccc2[nH]c1=O [CTR-17, (E)-3-(3-(2-Methoxyphenyl)-3-oxoprop-1-enyl)quinolin-2(1H)-one]	–	–	Neither CTR-17 nor CTR-20 caused any notable toxic side effect	150 ± 100	390 ± 30	600 ± 140	420 ± 70	760	820 ± 90	410 ± 60
COc1ccc2[nH]c(=O)c(/C=C/C(=O)c3ccccc3OC)cc2c1 [CTR-20, (E)-6-Methoxy-3-(3-(2-methoxyphenyl)-3-oxoprop-1-enyl) quinolin-2(1H)-one]	–	–	Neither CTR-17 nor CTR-20 caused any notable toxic side effect	130 ± 20	120 ± 30	390 ± 140	190	490 ± 130	220 ± 100	130 ± 40
